In brackets after ≈: the same amount, converted by molar mass.
Key:
[1] = Pharmacokinetic experiments (DMSO formulation); format: in vivo, Swiss mice; details: mice, oral, dose 20 mg/kg, vehicle 100% DMSO
Method: Pharmacokinetic experiments (DMSO Formulation). Compounds were administered at 20 mg per kg body weight by oral route to Swiss mice (22-24 g) (WIV-ISP breeding). Three mice per time point were anesthetized with ketamine-xyalzine and bled them at 10 min, 20 min, 30 min, 1 h, 2 h, 3 h and 6 h after administration of a single dose of ligands. Blood was collected from the brachial region on lithium heparinated tubes in order to prevent coagulation.
(§1) Plasma samples preparation. Plasma samples were thawed on ice. Aliquots of 50 μL were precipitated with 450 μL of ice cold acetonitrile containing internal standard (1 μM). The samples were vigorously mixed with a Vortex, centrifuged at 10000 rpm, at 4° C. for 10 min and the supernatants were transferred into Matrix tubes for LC-MS-MS analysis. Spiked standard solutions (10, 50, 100, 500, 1000, 5000, 10000 and 50000 nM) were prepared the same way.

[2] = pH 7.4, PBS
[3] = test system: M. tuberculosis H37Rv-GFP in Raw264.7 macrophages; test: microbe, parasite or virus in culture; format: cell-based; details: Mycobacterium tuberculosis
in vitro = details: CD-1, mouse, microsomes, pH 7.4
[4] = Pharmacokinetic experiments (aqueous hydroxypropyl-β-cyclodextrin formulation); format: in vivo, CD1 female mice; details: mice, single oral dose 20 mg/kg, vehicle aqueous 100 mM hydroxypropyl-β-cyclodextrin
Method: Pharmacokinetic experiments (aqueous hydroxypropyl-β-cyclodextrin Formulation). Compounds solubilized in aqueous hydroxypropyl-β-cyclodextrin solution (100 mM) were administered in single dose (20 mg/kg) to CD1 female mice (25-30 g) (Charles River Laboratories). […] Mice were immediately sacrificed by cervical dislocation. Three mice were dosed per kinetics time point.
as §1

physchem = details: pH 7.4, aqueous buffer, kinetic from dmso stock
[5] = RAW264.7, Table 1, […], mean of two experiments

Row | SMILES | AUC∞ [1] | Solubility [2] | EC50 ([3]; RAW264.7) | microsomal CLint (in vitro) | EC50 [3, 5] | AUC∞ [4] | solubility at 24 h (physchem) | microsomal CLint at 1 μM (in vitro)
1 | O=C(CCC(F)(F)F)N1CC[C@@H](c2nc(-c3cccs3)no2)C1 [Compound 2] | 100 ng·h/mL | 80 µg/mL (≈ 232 µM) | 400 nM | 4 µL/min/mg | – | – | – | –
2 | O=C(CCC(F)(F)F)N1CCC(c2nc(-c3cccs3)no2)CC1 [Compound 3, 4-4-4-trifluoro-1-[4-(3-thiophen-2-yl-[1,2,4]oxadiazol-5-yl)-piperidin-1-yl]butan-1-one, reference compound] | – | 150 µg/mL (≈ 417 µM) | 100 nM | 213 µL/min/mg | 100 nM | – | – | –
3 | O=C(CCC(F)(F)F)N1CCC(c2nc(-c3nccs3)no2)CC1 [Compound 5, 4,4,4-Trifluoro-1-[4-(3-thiazol-2-yl-1,2,4-oxadiazol-5-yl)-piperidin-1-yl]-butan-1-one] | 73500 ng·h/mL | 300 µg/mL (≈ 832 µM) | ≤ 500 nM | 37 µL/min/mg | 500 nM | 100500 ng·h/mL | – | –
4 | COc1ccc2nc(-c3noc(C4CCN(C(=O)CCC(F)(F)F)CC4)n3)sc2c1 [Compound 7, 4,4,4-Trifluoro-1-{4-[3-(6-methoxy-benzothiazol-2-yl)-1,2,4-oxadiazol-5-yl]-piperidin-1-yl}-butan-1-one] | – | 6 µg/mL (≈ 13.6 µM) | – | 197 µL/min/mg | 200 nM | – | – | –
5 | O=C(CCC(F)(F)F)N1CCC(c2nc(-c3ccccc3)no2)CC1 [Compound 8, 4,4,4-Trifluoro-1-[4-(3-phenyl-1,2,4-oxadiazol-5-yl)-piperidin-1-yl]-butan-1-one] | – | 40 µg/mL (≈ 113 µM) | ≤ 500 nM | – | 500 nM | – | – | –
6 | O=C(CCC(F)(F)F)N1CCC(c2nc(C3CCCC3)no2)CC1 [Compound 32, 1-[4-(3-Cyclopentyl-1,2,4-oxadiazol-5-yl)-piperidin-1-yl]-4,4,4-trifluoro-butan-1-one] | – | – | – | – | 800 nM | – | – | –
7 | O=C(CCC(F)(F)F)N1CC[C@@H](c2nc(-c3nccs3)no2)C1 [Compound 41, 4,4,4-trifluoro-1-[(3R)-3-[3-(1,3-thiazol-2-yl)-1,2,4-oxadiazol-5-yl]pyrrolidin-1-yl]butan-1-one] | – | – | 6300 nM | – | – | – | – | –
8 | O=C(CCCC(F)(F)F)N1CCC(c2nc(-c3nccs3)no2)CC1 [Compound 42, 5,5,5-Trifluoro-1-[4-(3-thiazol-2-yl-1,2,4-oxadiazol-5-yl)-piperidin-1-yl]-pentan-1-one] | – | 410 µg/mL (≈ 1100 µM) | 60 nM | 15 µL/min/mg | – | 98600 ng·h/mL | – | –
9 | O=C(CCCC(F)(F)F)N1CC[C@@H](c2nc(-c3cccs3)no2)C1 [Compound 43, 5,5,5-trifluoro-1-[(3R)-3-[3-(thiophen-2-yl)-1,2,4-oxadiazol-5-yl]pyrrolidin-1-yl]pentan-1-one] | – | – | 100 nM | – | – | – | 237 µg/mL (≈ 659 µM) | 297 µL/min/mg
10 | O=C(CCCC(F)(F)F)N1CCC(c2nc(-c3cccs3)no2)CC1 [Compound 44, 5,5,5-trifluoro-1-{4-[3-(thiophen-2-yl)-1,2,4-oxadiazol-5-yl]piperidin-1-yl}pentan-1-one] | – | – | 70 nM | – | – | – | – | –
11 | O=C(CCCC(F)(F)F)N1CCC(c2nc(-c3ccccc3)no2)CC1 [Compound 45, 5,5,5-trifluoro-1-[4-(3-phenyl-1,2,4-oxadiazol-5-yl)piperidin-1-yl]pentan-1-one] | – | – | 100 nM | – | – | – | 80 µg/mL (≈ 218 µM) | 73 µL/min/mg
12 | CS(=O)(=O)c1ccc(-c2noc(C3CCN(C(=O)CCCC(F)(F)F)CC3)n2)cc1 [Compound 46, 5,5,5-trifluoro-1-{4-[3-(4-methanesulfonylphenyl)-1,2,4-oxadiazol-5-yl]piperidin-1-yl}pentan-1-one] | – | – | 20 nM | – | – | – | 80 µg/mL (≈ 180 µM) | 14 µL/min/mg

From patent US8962658B2, “Fluoralkylcarbonyl-oxadiazoles” (Universite de Droit et de la Sante de Lille 2, priority 2011, dated 2015)
